Series [1] is described as follows: Stability of small molecule-linker conjugates in presence of excess free sulfhydryl (Cys), RP-HPLC. It is filed as physicochemical. Conditions: PBS with Cys 0.41 mg/mL, pH=7.4, 37° C., 7 days; peak area at t=0 defined as 100%. The procedure: In this example, the small molecule conjugates containing methyl maleate linker (Conjugate-1, Conjugate-2 and Conjugate-3, prepared in Example 9) and small molecule conjugates containing succinimide linker (Conjugate-1′, Conjugate-2′ and Conjugate-3′, prepared in Example 9) were evaluated to determine their stability situations in the presence of excess free sulfhydryl (Cys), in which the monitoring indicators were the changes of the remaining amounts of the small molecule conjugates containing two different linkers in the solution over time. The substances to be tested were each dissolved in DMSO, diluted with 10 times volume of PBS buffer containing cysteine (in which the concentration of Cys was 0.41 mg/mL, pH=7.4) and incubated in a 37° C. incubator; at t=0, another 200 μL of each sample was taken and stored at −80° C. as control. After each solution was incubated for 7 days, samples were taken separately, and RP-HPLC was used to detect the changes of their remaining amounts of substrate over time, in which the peak area of substrate at t=0 was defined as 100%.

The subject of series [2] is MCF-7. Briefly: In vitro cytotoxicity test (CellTiter Glo, 96 h). Format: cell-based. Conditions: MCF-7, HER2-weakly positive breast cancer; ADC DAR about 4. The procedure: (§1) The selected cell lines included antigen HER2-positive breast cancer cell lines BT-474 and HCC1954, antigen HER2-positive ovarian cancer cell line SK-OV-3, antigen HER2-positive gastric cancer cell line NCI-N87, and antigen HER2-weakly positive breast cancer cell line MCF-7, and antigen HER2-negative breast cancer cell line MDA-MB-468 (purchased from ATCC).
(§2) a) Vial was gently shaken in a 37° C. water bath to be thawed; b) after all the contents had been thawed, the vial was taken out from the water bath, and disinfected by immersion in or spraying with 70% ethanol; c) the contents of the vial was transferred into a centrifuge tube containing 9 mL of complete medium (DMEM medium was used for cell lines BT-474 and MCF-7; RPMI1640 medium was used for cell lines NCI-N87, HCC1954 and MDA-MB-468; and Mccoy's 5A medium was used for cell line SK-OV-3; the media described below were the same as here), and centrifuged at about 200 xg for 5 minutes; d) the cell pellet was re-suspended in a medium and distributed into a 75 cm^2 culture flask; e) the resulting culture was incubated in a 37° C., 5% CO2 incubator.
(§3) a) The cells were passaged three times a week at a ratio of 1:4 in a medium containing 10% FBS (heat inactivated) and 1% penicillin/streptomycin solution; b) for the passaged cells, the adherent cells were firstly washed with 0.05% trypsin/EDTA solution (3 mL), then trypsin/EDTA (3 mL) was added and vortexed to coat the cells evenly. The resulting culture was incubated at 37° C. until the cells were detached (observed with microscope to verify that the cells were detached). An equal volume of cell culture medium was added to inactivate trypsin, the detached cells were collected, and centrifuged at 200×g for 5 minutes and then re-suspended in fresh culture medium.
(In general: Cellular ATP, detected with luciferase, serves as a proxy for viable cell number.)

Series [3] concerns HCC1954. Briefly: In vitro cytotoxicity test (CellTiter Glo, 96 h). It is filed as cell-based. Conditions: HCC1954, HER2-positive breast cancer; ADC DAR about 4. Here is the method:
as §1, §2, §3

Series [4] concerns MDA-MB-468. Briefly: In vitro cytotoxicity test (CellTiter Glo, 96 h). It is filed as cell-based. The following applies: MDA-MB-468, HER2-negative breast cancer; ADC DAR about 4. Here is the method:
as §1, §2, §3

Series [5] has as its system NCI-N87. Briefly: In vitro cytotoxicity test (CellTiter Glo, 96 h). It is filed as cell-based. Conditions: NCI-N87, HER2-positive gastric cancer; ADC DAR about 4. Here is the method:
as §1, §2, §3

The test system of series [6] is SK-OV-3. Briefly: In vitro cytotoxicity test (CellTiter Glo, 96 h). Format: cell-based. The following applies: Sk-OV-3, HER2-positive ovarian cancer; ADC DAR about 4. Here is the method: as §1, §2, §3
The test system of series [7] is BT-474. Briefly: In vitro cytotoxicity test (CellTiter Glo, 96 h). Format: cell-based, human. The following applies: BT-474, HER2-positive breast cancer; ADC DAR about 4. Here is the method: as §1
as §2, with “incubator. […]” for “incubator.”

Each structure is given as a SMILES string. Square brackets hold non-standard residues; d marks the D form. Peptide text beside a SMILES is read from it. * marks the point of attachment. Dolaproine = CO[C@@H]([C@@H]1CCCN1)[C@@H](C)C(=O)O; Dil = CC[C@H](C)[C@H](NC)[C@@H](CC(=O)O)OC; X1 = C[C@@H](N*)[C@@H](O)c1ccccc1; NMeV = CN[C@H](C(=O)O)C(C)C

For `COC(=O)CC(SC[C@H](NC(C)=O)C(=O)NCc1ccccc1)C(=O)NCCCCCC(=O)Nc1ccccc1` (stereo partly drawn) [Conjugate-1], in series [1], the Remaining amount is reported as 96%.
For the compound `CC(=O)N[C@@H](CSC1CC(=O)N(CCCCCC(=O)Nc2ccccc2)C1=O)C(=O)NCc1ccccc1` (stereo partly drawn) [Conjugate-1′], the Remaining amount in series [1] was determined as 53%.
Regarding `COC(=O)CC(SCCO)C(=O)NCCCCCC(=O)Nc1ccccc1` (stereo not drawn) [Conjugate-2], the Remaining amount in series [1] came out at 98%.
For the compound `O=C(CCCCCN1C(=O)CC(SCCO)C1=O)Nc1ccccc1` (stereo not drawn) [Conjugate-2′], the Remaining amount in series [1] came to 61%.
On the same count and under the same terms, to `COC(=O)CC(SCc1ccccc1)C(=O)NCCCCCC(=O)Nc1ccccc1` (stereo not drawn) [Conjugate-3] belongs 93%.
For `O=C(CCCCCN1C(=O)CC(SCc2ccccc2)C1=O)Nc1ccccc1` (stereo not drawn) [Conjugate-3′], the Remaining amount in series [1] turned out to be 49%.
Turning to `CC[C@H](C)[C@@H]([C@@H](CC(=O)N1CCC[C@H]1[C@H](OC)[C@@H](C)C(=O)N[C@H](C)[C@@H](O)c1ccccc1)OC)N(C)C(=O)[C@@H](NC(=O)[C@@H](NC)C(C)C)C(C)C` [MMAE, Monomethyl-auristatin E] (H-[NMeV]V[Dil][Dolaproine]-X1), the IC50 came to 0.223 nM in series [2]; 0.116 nM in series [3]; 0.0669 nM in series [4]; 0.161 nM in series [5]; 0.644 nM in series [6]; 0.299 nM in series [7].

As a reminder, the IC50 is the point on the concentration scale where inhibition reaches its midpoint. A low value points to higher potency.

The values above are taken from patent US12668573B2, “Linker, antibody-drug conjugate including same and use thereof” (Zhejiang Yangshengtang Institute of Natural Medication Co., …, priority 2018, dated 2026).
